Activity calls are given as the source filed them.
Key:
[1] = viability of uninfected HEp-2 cells – cell-based, HTS, cytotoxicity control for RSV inhibitor project, dose response (AID 2410); format: functional; conditions: human respiratory syncytial virus
Aminopeptidase N = biological target: T1, Aminopeptidase N (Plasmodium falciparum FcB1/Columbia, UniProt O96935); test: malaria alanyl aminopeptidase activity blockers – biochemical, fluorogenic H-Leu-NHMec substrate, 1536-well (AID 1445); parameters: species or system Plasmodium falciparum 3D7, 3D7
T1 sequence (O96935 whole entry): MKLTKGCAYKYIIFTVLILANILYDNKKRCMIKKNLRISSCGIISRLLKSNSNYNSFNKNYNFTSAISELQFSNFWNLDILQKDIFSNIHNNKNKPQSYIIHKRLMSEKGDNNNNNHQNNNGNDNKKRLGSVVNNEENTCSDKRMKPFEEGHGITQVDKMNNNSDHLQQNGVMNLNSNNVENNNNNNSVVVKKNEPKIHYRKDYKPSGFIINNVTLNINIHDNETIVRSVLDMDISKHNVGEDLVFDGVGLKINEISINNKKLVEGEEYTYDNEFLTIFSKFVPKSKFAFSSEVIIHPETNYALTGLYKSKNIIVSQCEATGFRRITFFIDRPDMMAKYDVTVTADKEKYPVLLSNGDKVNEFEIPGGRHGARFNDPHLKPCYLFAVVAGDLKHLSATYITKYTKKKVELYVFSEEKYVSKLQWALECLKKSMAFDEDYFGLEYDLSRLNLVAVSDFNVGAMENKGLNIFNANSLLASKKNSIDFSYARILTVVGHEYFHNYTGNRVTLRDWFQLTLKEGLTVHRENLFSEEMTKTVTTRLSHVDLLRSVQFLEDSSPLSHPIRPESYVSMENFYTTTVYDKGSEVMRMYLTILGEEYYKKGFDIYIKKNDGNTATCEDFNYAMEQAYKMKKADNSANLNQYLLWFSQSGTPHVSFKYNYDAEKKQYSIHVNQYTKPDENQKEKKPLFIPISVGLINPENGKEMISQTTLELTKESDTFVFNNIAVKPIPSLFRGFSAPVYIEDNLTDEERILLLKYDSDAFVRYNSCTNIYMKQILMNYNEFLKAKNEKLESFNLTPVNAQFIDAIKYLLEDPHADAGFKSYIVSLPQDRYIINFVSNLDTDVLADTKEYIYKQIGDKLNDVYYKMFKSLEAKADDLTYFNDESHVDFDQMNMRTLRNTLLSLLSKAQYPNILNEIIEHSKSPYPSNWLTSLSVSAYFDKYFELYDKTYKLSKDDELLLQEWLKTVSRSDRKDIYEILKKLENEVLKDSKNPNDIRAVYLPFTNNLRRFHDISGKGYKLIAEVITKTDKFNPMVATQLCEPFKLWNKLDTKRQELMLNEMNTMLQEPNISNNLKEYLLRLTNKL

[2] = biological target: Eukaryotic translation initiation factor 4E (Mus musculus, UniProt P63073); test: blockers of eIF4G binding by eIF4E – biochemical, TR-FRET, dose response (AID 855); format: functional;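 also: potency for disrupting eIF4E binding to eIF4GI seen as loss of FRET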
Eukaryotic translation initiation factor 4E, sequence (P63073 whole entry, the tested form may be a part): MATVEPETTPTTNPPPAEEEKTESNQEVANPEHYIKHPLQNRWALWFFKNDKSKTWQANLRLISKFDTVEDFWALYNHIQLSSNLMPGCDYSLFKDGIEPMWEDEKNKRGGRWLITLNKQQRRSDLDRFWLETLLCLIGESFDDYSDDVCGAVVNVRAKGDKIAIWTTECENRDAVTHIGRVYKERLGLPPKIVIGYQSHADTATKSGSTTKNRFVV

[3] = biological target: T2, Carboxy-terminal domain RNA polymerase II polypeptide A small phosphatase 1 (Homo sapiens, UniProt Q9GZU7); test: CTDSP1 inhibitors, concentration-response, biochemical, absorbance readout, ultra-high-throughput screen actives (AID 540297); format: functional
T2 sequence (Q9GZU7 whole entry): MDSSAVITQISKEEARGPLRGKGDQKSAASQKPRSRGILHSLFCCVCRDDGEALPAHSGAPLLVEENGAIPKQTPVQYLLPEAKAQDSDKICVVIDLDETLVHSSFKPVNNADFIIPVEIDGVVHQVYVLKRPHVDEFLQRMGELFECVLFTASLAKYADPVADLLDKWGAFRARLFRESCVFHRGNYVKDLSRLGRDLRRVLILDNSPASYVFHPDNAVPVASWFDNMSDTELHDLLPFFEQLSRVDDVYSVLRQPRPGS

[4] = blockers of HIV-1 envelope-mediated cell-cell fusion – cherry-pick, dose response (AID 652057); format: functional, cell-based
[5] = HIV-1 AD8 envelope cell-cell fusion blockers – cherry-pick, dose response (AID 652062); format: functional, cell-based;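 also: luciferase signal from cell-cell fusion driven by HIV-1 clade B AD8 Env; potency is for inhibitors of fusion seen as a drop in luminescence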
[6] = HEK-293T viability loss after treatment – luminescence, T-cell screen hits, cytotoxicity control for TCR NF-kB inhibitor project, dose response (AID 489026); format: functional, cell-based;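 also: cells exposed to compound about 14 hours before the viability readout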
Large T antigen = Large T antigen (Simian virus 40, UniProt P03070); format: functional, Betapolyomavirus macacae;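 also: Confirmatory-stage PubChem screen for compounds that inhibit SV40 T antigen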
Large T antigen, sequence (P03070 whole entry): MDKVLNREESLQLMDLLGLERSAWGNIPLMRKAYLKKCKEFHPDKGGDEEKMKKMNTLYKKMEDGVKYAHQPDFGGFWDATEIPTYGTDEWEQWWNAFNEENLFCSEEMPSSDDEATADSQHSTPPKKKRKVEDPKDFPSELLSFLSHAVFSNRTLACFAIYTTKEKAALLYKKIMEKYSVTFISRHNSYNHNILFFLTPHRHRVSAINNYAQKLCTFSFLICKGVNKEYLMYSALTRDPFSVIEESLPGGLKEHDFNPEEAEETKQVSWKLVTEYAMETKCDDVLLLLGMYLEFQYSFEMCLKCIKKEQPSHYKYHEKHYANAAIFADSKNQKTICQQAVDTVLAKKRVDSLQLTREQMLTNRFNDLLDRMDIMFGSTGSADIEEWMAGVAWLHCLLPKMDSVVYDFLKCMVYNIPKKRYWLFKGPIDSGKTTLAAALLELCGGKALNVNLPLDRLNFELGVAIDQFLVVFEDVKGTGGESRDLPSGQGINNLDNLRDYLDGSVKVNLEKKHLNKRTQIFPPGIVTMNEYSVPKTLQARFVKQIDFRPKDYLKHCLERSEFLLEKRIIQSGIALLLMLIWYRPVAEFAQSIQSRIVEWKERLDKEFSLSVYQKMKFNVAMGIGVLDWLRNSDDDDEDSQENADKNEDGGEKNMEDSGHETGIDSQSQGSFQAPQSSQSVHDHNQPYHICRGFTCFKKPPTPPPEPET

Nonstructural protein 1 = Nonstructural protein 1 (Influenza A virus, UniProt Q194T2); format: functional, Influenza A virus (A/California/07/2009(H1N1))
Nonstructural protein 1, sequence (Q194T2 whole entry): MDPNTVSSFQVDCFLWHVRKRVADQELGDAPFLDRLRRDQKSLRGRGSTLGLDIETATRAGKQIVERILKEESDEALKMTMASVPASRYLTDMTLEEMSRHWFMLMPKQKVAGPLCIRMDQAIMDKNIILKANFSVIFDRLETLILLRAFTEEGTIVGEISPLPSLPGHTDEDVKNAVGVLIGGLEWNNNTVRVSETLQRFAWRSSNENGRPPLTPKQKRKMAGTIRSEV

[7] = biological target: DNA dC->dU-editing enzyme APOBEC-3G (Homo sapiens, UniProt Q9HC16); test: Dose Response confirmation of small molecule APOBEC3G DNA Deaminase Inhibitors via a fluorescence-based single-stranded DNA deaminase assay. [Related pubchem assays (depositor defined):AID493012, AID493028]; format: functional
DNA dC->dU-editing enzyme APOBEC-3G, sequence (Q9HC16 whole entry): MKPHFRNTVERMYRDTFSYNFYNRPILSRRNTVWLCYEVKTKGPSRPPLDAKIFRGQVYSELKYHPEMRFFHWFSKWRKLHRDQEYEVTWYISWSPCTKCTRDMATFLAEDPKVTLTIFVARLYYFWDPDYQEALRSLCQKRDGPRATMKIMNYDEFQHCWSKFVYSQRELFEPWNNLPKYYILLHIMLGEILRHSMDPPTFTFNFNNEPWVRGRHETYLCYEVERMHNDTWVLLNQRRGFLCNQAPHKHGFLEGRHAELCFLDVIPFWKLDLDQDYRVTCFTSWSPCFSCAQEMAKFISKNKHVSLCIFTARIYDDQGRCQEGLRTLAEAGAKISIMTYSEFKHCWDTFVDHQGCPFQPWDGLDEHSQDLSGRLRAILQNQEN

cells = format: functional
[8] = biological target: T3, Sentrin-specific protease 8 (Homo sapiens, UniProt Q96LD8); format: functional;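 also: luminescence read-out of SENP8 inhibition, dose-response confirmation following an ultra-high-throughput screen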
T3 sequence (Q96LD8 whole entry): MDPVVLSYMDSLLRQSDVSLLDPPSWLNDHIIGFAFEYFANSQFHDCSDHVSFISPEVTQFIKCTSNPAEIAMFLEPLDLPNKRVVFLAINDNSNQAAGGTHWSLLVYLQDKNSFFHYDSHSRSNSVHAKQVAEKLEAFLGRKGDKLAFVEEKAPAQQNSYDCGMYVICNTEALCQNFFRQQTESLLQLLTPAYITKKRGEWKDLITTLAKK

[9] = biological target: T4, Sentrin-specific protease 6 (Homo sapiens, UniProt Q9GZR1); format: functional;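 also: Luminescence-based dose-response confirmatory assay of SENP6 inhibition, following up an ultra-high-throughput screen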
T4 sequence (Q9GZR1 whole entry): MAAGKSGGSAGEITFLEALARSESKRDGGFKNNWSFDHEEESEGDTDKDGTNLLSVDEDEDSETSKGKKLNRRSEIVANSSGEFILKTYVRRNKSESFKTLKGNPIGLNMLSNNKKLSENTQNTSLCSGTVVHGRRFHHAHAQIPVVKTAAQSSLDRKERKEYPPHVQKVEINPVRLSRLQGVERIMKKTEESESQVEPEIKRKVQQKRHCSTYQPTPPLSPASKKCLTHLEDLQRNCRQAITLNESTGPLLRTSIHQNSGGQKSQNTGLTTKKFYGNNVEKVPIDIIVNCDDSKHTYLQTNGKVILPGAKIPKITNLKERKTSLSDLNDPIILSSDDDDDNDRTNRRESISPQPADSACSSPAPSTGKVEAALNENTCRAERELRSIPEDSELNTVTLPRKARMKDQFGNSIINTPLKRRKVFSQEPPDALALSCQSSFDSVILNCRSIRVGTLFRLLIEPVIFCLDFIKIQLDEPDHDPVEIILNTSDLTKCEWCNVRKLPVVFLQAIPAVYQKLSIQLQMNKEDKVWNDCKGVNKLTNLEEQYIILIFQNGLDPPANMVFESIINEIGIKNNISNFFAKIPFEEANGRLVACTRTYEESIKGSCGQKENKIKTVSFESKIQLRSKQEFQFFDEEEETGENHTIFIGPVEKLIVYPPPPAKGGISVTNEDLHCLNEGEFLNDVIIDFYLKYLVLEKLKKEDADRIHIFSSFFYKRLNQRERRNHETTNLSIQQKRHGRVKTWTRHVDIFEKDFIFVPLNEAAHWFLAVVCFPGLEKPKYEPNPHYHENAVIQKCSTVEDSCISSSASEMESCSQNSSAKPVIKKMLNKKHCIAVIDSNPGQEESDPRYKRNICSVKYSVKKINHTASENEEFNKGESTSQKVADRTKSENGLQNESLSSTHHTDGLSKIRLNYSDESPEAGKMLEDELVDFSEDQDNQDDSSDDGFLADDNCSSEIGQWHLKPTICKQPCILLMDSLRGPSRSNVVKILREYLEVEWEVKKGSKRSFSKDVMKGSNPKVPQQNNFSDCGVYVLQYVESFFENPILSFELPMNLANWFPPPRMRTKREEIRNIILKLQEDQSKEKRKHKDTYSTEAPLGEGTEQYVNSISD

[10] = biological target: T5, Sentrin-specific protease 7 (Homo sapiens, UniProt Q9BQF6); format: functional;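 also: Luminescence-based dose-response confirmation of ultra-high-throughput screening hits, measuring inhibition of SENP7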
T5 sequence (Q9BQF6 whole entry): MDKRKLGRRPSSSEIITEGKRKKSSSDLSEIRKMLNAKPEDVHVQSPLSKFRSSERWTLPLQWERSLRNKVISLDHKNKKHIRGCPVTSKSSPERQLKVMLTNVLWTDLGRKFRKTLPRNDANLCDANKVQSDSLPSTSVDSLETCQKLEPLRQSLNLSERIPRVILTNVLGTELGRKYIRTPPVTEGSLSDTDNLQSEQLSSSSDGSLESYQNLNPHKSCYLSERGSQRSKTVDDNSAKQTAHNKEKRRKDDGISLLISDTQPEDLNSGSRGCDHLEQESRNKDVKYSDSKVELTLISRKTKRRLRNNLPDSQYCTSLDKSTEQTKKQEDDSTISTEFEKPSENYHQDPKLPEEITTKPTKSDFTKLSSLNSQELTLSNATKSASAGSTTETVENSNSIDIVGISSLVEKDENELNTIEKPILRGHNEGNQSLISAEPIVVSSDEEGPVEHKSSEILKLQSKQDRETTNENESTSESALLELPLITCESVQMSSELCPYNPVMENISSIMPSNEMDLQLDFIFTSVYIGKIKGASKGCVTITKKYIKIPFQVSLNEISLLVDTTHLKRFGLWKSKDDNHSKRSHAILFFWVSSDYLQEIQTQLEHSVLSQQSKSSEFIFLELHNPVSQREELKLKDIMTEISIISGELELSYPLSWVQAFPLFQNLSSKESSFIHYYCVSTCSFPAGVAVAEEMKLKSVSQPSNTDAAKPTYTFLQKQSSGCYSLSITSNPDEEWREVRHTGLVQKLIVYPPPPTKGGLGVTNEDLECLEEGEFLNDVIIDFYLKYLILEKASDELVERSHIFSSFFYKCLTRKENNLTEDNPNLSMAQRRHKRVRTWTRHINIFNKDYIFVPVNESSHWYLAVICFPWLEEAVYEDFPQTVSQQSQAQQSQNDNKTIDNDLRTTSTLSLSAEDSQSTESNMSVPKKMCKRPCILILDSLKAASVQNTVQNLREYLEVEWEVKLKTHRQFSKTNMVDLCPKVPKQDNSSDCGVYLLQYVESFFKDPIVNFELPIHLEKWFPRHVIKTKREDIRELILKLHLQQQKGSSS

For `Cc1ccc2nc(NS(C)(=O)=O)sc2c1`, the CC50 [1] was 23 µM (active).
For `CCCCc1nc(NCCNC(=O)c2ccco2)c(C#N)c2c1CSC(C)(C)C2`, the IC50 (Aminopeptidase N) was 85.3 µM (active).
With `N#C/C(=C\c1ccc(OC(=O)c2ccc(Br)s2)cc1)c1nc2ccccc2[nH]1` the IC50 [2] was > 64 µM (inactive) and the IC50 [3] was 1.78 µM (active).
With `COc1ccc(OC2C(=O)N(Cc3ccc4c(c3)OCO4)C2c2cccs2)cc1` (centres undefined) the AC50 [4] was 53.1 µM (active) and the AC50 [5] was 1.71 µM (active).
For `CCOC(=O)C(C)Oc1cccc2c(=O)n(CC(=O)NCc3ccco3)ccc12` (centres undefined), the IC50 [6] was > 80 µM (inactive).
With `O=c1cc(CN2CCN(c3ccc(O)cc3)CC2)nc2scc(-c3ccccc3)n12` the IC50 (Large T antigen) was 10.5 µM (active).
With `COc1cc(NS(=O)(=O)c2ccc(NC(=S)NC(=O)c3cccs3)cc2)nc(OC)n1` the IC50 (Aminopeptidase N) was 38.9 µM (active).
In the case of `CCN(CC)S(=O)(=O)c1ccc(OC)c(NC(=O)Cc2cccs2)c1`, the IC50 [2] is reported as 50 µM (inactive) and the IC50 [3] is reported as 4.5 µM (active).
In the case of `C[C@H](NC(=O)c1ccccc1)C(=O)Nc1nc(-c2ccccn2)cs1`, the IC50 (Nonstructural protein 1) is reported as 16.3 µM (active).
For `COc1ccccc1-c1noc(-c2ccccc2)n1`, the IC50 [2] was > 64 µM (inactive).
With `O=[N+]([O-])c1cc(/C=N/N=C(/Nc2ccccn2)c2ccccn2)ccc1O` the IC50 (Nonstructural protein 1) was 2.46 µM (active).
With `CN1/C(=C\C(=O)c2cccnc2)Sc2ccccc21` the CC50 [1] was 26.5 µM (active).
For `O=[N+]([O-])c1ccc(Sc2ccc(Cl)c(Cl)c2)nc1`, the IC50 [6] was > 80 µM (inactive).
For `C[C@H]1CN([C@@H](C)CO)C(=O)c2ccccc2-c2ccccc2CO[C@H]1CN(C)S(=O)(=O)c1cccc(C#N)c1`, the AC50 [4] was < 0.26 µM (active) and the AC50 [5] was 0.743 µM (active).
With `Cc1ccc(S(=O)(=O)NNC2=NS(=O)(=O)c3ccccc32)c(C)c1` the IC50 (Aminopeptidase N) was 9.97 µM (active).
For `COc1ccc(C(=O)CN2C(=O)NC(C)(c3ccc(C)cc3)C2=O)cc1OC` (centres undefined), the IC50 [2] was > 64 µM (inactive).
In the case of `CCn1c(CNC(=O)c2cccs2)nnc1SCC(=O)NCCc1ccccc1`, the IC50 (Aminopeptidase N) is reported as 90 µM (active).
With `CCN(CC)c1ccc(S(=O)(=O)N(CC)CC)cc1NC(=O)c1cccnc1` the IC50 (Aminopeptidase N) was 28.5 µM (active).
In the case of `Cc1ccc2cc(CCNS(=O)(=O)c3ccc(Br)cc3)c(O)nc2c1C`, the CC50 [1] is reported as 22.1 µM (active).
For `O=C1CCC(C(=O)Nc2cccc(S(=O)(=O)Nc3ccccc3F)c2)=NN1`, the IC50 [7] was 24.6 µM (active).
With `CN(C(=O)c1ccccc1OCc1ccc(Cl)cc1)c1ccccc1` the CC50 [1] was 25.7 µM (active).
For `CC1CCN(c2c(NCC3CCC(C(=O)NCCc4ccc(Cl)cc4)CC3)c(=O)c2=O)CC1` (centres undefined), the CC50 [1] was > 50 µM (active).
With `Cc1cccc(NC(=O)c2ccc(OC3CSC3)cc2)c1` the IC50 (cells) was 44 µM (active).
For `Cc1[nH]n(C(N)=S)c(=O)c1/N=N/c1ccccc1C(F)(F)F`, the IC50 [8] was 15.5 µM (active), the IC50 [9] was 18.9 µM (active) and the IC50 [10] was 12.7 µM (active).
With `Cc1ccc(S(=O)(=O)N(C)C[C@@H]2Oc3ccc(NC(=O)Cn4cnnn4)cc3CC(=O)N([C@H](C)CO)C[C@@H]2C)cc1` the AC50 [4] was 2.96 µM (active) and the AC50 [5] was 7.7 µM (active).
With `CCOc1cc(NS(=O)(=O)c2ccc(NC(C)=O)cc2)c(OCC)cc1NC(=O)c1cccs1` the IC50 (Large T antigen) was 24 µM (active).
For `CN1CCN(C(=S)SCC(=O)Nc2ccc(Cl)cc2C(=O)c2ccccc2)CC1`, the IC50 (Nonstructural protein 1) was > 100 µM (active).

— ChEMBL document CHEMBL1201862, “PubChem BioAssay data set” (2004)
